# Results: publication PMC8658928, “Isolation of N-Ethyl-2-pyrrolidinone-Substituted Flavanols from White Tea Using Centrifugal Countercurrent Chromatography Off-Line ESI-MS Profiling and Semi-Preparative Liquid Chromatography” (Molecules, 2021)
# pIC50: −log10 of the molar value.
# Target: α-glucosidase
# Experiment: pNPG hydrolysis assay, absorbance at […] nm, pH […]
# Type: biochemical
row,Structure (SMILES),pIC50
1,CCN1C(=O)CC[C@H]1c1c(O)cc(O)c2c1O[C@H](c1cc(O)c(O)c(O)c1)[C@H](OC(=O)c1cc(O)c(O)c(O)c1)C2 [S-EGCG-cThea],3.79
2,O=C(O[C@@H]1Cc2c(O)cc(O)cc2O[C@@H]1c1cc(O)c(O)c(O)c1)c1cc(O)c(O)c(O)c1 [EGCG],3.89
3,CCN1C(=O)CC[C@@H]1c1c(O)cc(O)c2c1O[C@H](c1cc(O)c(O)c(O)c1)[C@H](OC(=O)c1cc(O)c(O)c(O)c1)C2 [R-EGCG-cThea],4.15
